Source: patent publication US20200247855A1, “THERAPY AND DIAGNOSTICS” (OXFORD UNIVERSITY INNOVATION LIMITED, priority 2017, published 2020)
Positions of bridges follow the written chain, without caps; N, C: chain ends. Residues, ends and D or L forms follow the SMILES beside them.

How the values were obtained:
CCL2_HUMAN = CCL2_HUMAN (Homo sapiens, UniProt P13500); assay: Neutralisation of chemokine induced THP-1 cell migration; format: cell-based; details: single concentration of peptide; EC80 CCL2 1.2 nM
Sequence of CCL2_HUMAN (P13500 24-99): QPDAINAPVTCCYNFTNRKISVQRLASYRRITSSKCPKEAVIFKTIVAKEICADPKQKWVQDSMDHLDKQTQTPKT
Protocol: (§1) Table 1. Tick CKBPs described in PCT/GB2017/050563 and [17]. Tick peptide sequences isolated in yeast surface display fluorescent-activated cell sorting (FACS) screens using a labelled chemokine. Identity with Evasin-1, 4 or 3 was calculated using BLAST. Abbreviations: IXORI—Ixodes ricinus, RHISA—Rhipicephalus sanguineus, AMBMA—Amblyomma maculatum, AMBPA—Amblyomma parvum, AMBTR—Amblyomma triste, AMBAM—Amblyomma americanum, AMBCA—Amblyomma cajennense, RHIPU—Rhipicephalus pulchellus. Table 2A-C. Binding characteristics of tick CKBPs previously disclosed (PCT/GB2017/050563 and [17]). All members of the human chemokine family[164] are listed in column 1. Binding to human chemokines was determined for 14 tick CKBPs using biolayer interferometry (BLI) with calculated Kd shown as Molar (Moles/Litre). Binding data for 17 other novel tick CKBPs was assayed using yeast surface display[17,166],with positive binding results shown as “YES”. For biolayer interferometry, His-tagged purified tick CKBP was bound to a Ni-NINTA sensor on an OctetRed® 384 system, and then binding to each chemokine listed (with the exception of CCL25, CCL26, CXCL16, CXCL17, CXCL4L1, XCL2) was assayed in a cross-binding screen at a chemokine concentration of 300 nM as described. For those chemokines showing binding to a tick CKBP in the cross-binding screen, binding assays were repeated using different doses of chemokine. Association, equilibrium and dissociation data were analysed using Octet software to create corresponding fitted curves, and used to calculate Kd. For yeast surface display, (YSD) background fluorescence was controlled for by using either an empty vector or by omitting the chemokine (i.e. using streptavidin-Alexa647 alone). An arbitrary threshold of >3 fold over background mean fluorescence intensity was chosen to describe confirmed re-tests. Where binding was detected data are indicated as “YES”. […] For yeast surface display data, empty cells represent chemokines that were not tested. Binding data published in relation to previously described tick CKBPs (Evasins-1, 4 and 3) is also shown for comparison in each of FIGS. 2A-C, with the relevant data obtained from publications: [20-22,32]. Table 3: Neutralisation of human chemokines by tick CKBPs previously disclosed (PCT/GB2017/050563 and [17]). Neutralising activity was determined using a quantitative THP1 cell migration assay in a 96-well Boyden chamber with chemokine in the bottom chamber as described. Cells migrating through to the bottom chamber at 4 hours were counted using flow cytometry in a 96 well plate format. IC50 for neutralisation was determined at the chemokine EC80 dose as determined using a range of tick CKBP concentrations. Data was analysed using GraphPad Prism to determine IC50, which is shown as Molar (Moles/Litre). Empty cells represent experiments not done. Table 4—Other previously described tick CKBPs. Tick CKBPs that were also described in PCT/GB2017/050563 and Singh et al. are indicated in “Notes”. Table 5.—Novel tick CKBPs of the invention. Table 6. […] The peptide sequence prefix indicates the identity, and suffix indicate the tick species as follows: AMBCA, Amblyomma cajennense and IXORI, Ixodes ricinus. […] Individual yeast clones recovered from the library were re-tested using a FACS (fluorescence activated cell sorting), experiment. The binding of the peptide to the chemokine was assayed by measuring the percent (%), of yeast cells expressing the given peptide that exceeded a background threshold set by measuring the fluorescence of the yeast library pool treated with streptavidin-[…] alone. When more than one independent yeast clone was isolated for a given peptide-chemokine combination, the mean percent shift was calculated and reported in column 3.

CCL3_HUMAN = biological target: T1, CCL3_HUMAN (Homo sapiens, UniProt P10147); assay: as above; format: cell-based; details: single concentration of peptide; EC80 CCL3 3.5 nM
T1 sequence (P10147 24-92): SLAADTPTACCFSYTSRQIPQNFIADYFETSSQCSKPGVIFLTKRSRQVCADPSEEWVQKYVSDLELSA
Protocol: as §1

CCL7_HUMAN = CCL7_HUMAN (Homo sapiens, UniProt P80098); assay: as above; format: cell-based; details: single concentration of peptide; EC80 CCL7 7.2 nM
Sequence of CCL7_HUMAN (P80098 24-99): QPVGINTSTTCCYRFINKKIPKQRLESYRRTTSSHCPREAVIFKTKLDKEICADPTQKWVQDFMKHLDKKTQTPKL
Protocol: as §1

CCL8_HUMAN = biological target: T2, CCL8_HUMAN (Homo sapiens, UniProt P80075); assay: as above; format: cell-based; details: single concentration of peptide; EC80 CCL8 5.8 nM
T2 sequence (P80075 24-99): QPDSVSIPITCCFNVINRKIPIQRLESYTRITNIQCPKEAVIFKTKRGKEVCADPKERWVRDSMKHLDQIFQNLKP
Protocol: as §1

human CCL2-647 = biological target: T3, human CCL2-647 (Homo sapiens, UniProt P13500); assay: Fluorescent chemokine binding to THP-1 cells (flow cytometry); format: cell-based; details: CCL2-647 1.2 nM, read-out: IC50 against CCL2-647 induced THP-1 cellular fluorescence
T3 construct: purchased Almac (UK)
T3 sequence (P13500 24-99): as the sequence (P13500 24-99) above
Protocol: Data are shown as mean of two technical replicates. […] Curves were fitted with 4 parameters to estimate IC50.
Fluorescent chemokine (conjugated to AlexaFluor-647) binding to THP-1 cells results in an increase in the cellular fluorescence intensity, which is quantitatively measured using flow cytometry.
Fluorescent Chemokine/Receptor Blocking Assay CCL8-647 (2.5 nM, final) or […] (1.2 nM, final) was incubated for 30 minutes with varying doses of peptide (0-100 μM, final concentration) in 50 μL assay buffer (RPMI-1640+L-glutamine (4 mM)+10% heat treated fetal bovine serum+0.2% DMSO) at 37° C. This mixture was then added to 50,000 THP-1 cells in a 96-well v-bottomed plated to give a final volume of 100 μL, and everything incubated together for a further 30 minutes at 37° C. Following this time, the plate was centrifuged, the supernatant flicked off, and the cells resuspended in 150 μL ice cold PBSA. This was repeated twice more and the cells were finally resuspended in 150 μL ice cold PBSA. The median fluorescence intensity of 10,000 cells on the RL-1 channel was determined using an ATTUNE flow cytometer and plotted as function of peptide concentration and the data fitted to an inhibitor response curve with 4 parameters using Graph Pad prism 6. Experiments were performed as two technical and three biological replicates.

CXCL9_HUMAN = biological target: T4, CXCL9_HUMAN (Homo sapiens, UniProt Q07325); assay: Yeast surface display (YSD) FACS binding; details: FACS re-test; mean percent shift where several clones
T4 sequence (Q07325 23-125): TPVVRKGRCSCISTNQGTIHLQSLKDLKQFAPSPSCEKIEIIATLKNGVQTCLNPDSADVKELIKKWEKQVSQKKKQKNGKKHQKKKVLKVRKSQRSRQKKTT
Protocol: Table 1. Tick CKBPs described in PCT/GB2017/050563 and [17]. Tick peptide sequences isolated in yeast surface display fluorescent-activated cell sorting (FACS) screens using a labelled chemokine. Identity with Evasin-1, 4 or 3 was calculated using BLAST. Abbreviations: IXORI—Ixodes ricinus, RHISA—Rhipicephalus sanguineus, AMBMA—Amblyomma maculatum, AMBPA—Amblyomma parvum, AMBTR—Amblyomma triste, AMBAM—Amblyomma americanum, AMBCA—Amblyomma cajennense, RHIPU—Rhipicephalus pulchellus. Table 2A-C. Binding characteristics of tick CKBPs previously disclosed (PCT/GB2017/050563 and [17]). All members of the human chemokine family[164] are listed in column 1. Binding to human chemokines was determined for 14 tick CKBPs using biolayer interferometry (BLI) with calculated Kd shown as Molar (Moles/Litre). […] Association, equilibrium and dissociation data were analysed using Octet software to create corresponding fitted curves, and used to calculate Kd. For yeast surface display, (YSD) background fluorescence was controlled for by using either an empty vector or by omitting the chemokine (i.e. using streptavidin-Alexa647 alone). An arbitrary threshold of >3 fold over background mean fluorescence intensity was chosen to describe confirmed re-tests. Where binding was detected data are indicated as “YES”. […] Data was analysed using GraphPad Prism to determine IC50, which is shown as Molar (Moles/Litre). […]

Compound	Effect on CCL2-induced THP-1 cell migration (CCL2_HUMAN)	Effect on CCL3-induced THP-1 cell migration (CCL3_HUMAN)	Effect on CCL7-induced THP-1 cell migration (CCL7_HUMAN)	Effect on CCL8-induced THP-1 cell migration (CCL8_HUMAN)	IC50 (human CCL2-647) [µM]	Chemokines bound in yeast surface display and % cells over threshold fluorescence: CXCL9_HUMAN (CXCL9_HUMAN)
CC(C)[C@@H]1NC(=O)[C@@H]2CCCN2C(=O)[C@H](CCCCN)NC(=O)[C@H](Cc2ccccc2)NC(=O)[C@H](Cc2ccccc2)NC(=O)[C@H](CC(=O)O)NC(=O)[C@H](CCC(=O)O)NC(=O)[C@H](Cc2ccc(O)cc2)NC(=O)[C@H](CC(=O)O)NC(=O)[C@H](CCC(=O)O)NC(=O)[C@H](CC(=O)O)NC(=O)[C@H](CCC(=O)O)NC(=O)[C@H](Cc2ccc(O)cc2)NC(=O)CSC[C@@H](C(=O)N[C@@H](Cc2ccc(O)cc2)C(=O)N[C@@H](Cc2ccccc2)C(N)=O)NC(=O)[C@H]([C@@H](C)O)NC1=O [BK1.2] ({CH2CO}-YEDEDYEDFFKPVTCYF-NH2; thioether N-15)	stronger effect	significantly reduced	stronger effect	reduced CCL8 induced cell migration to baseline levels	6.3	
P1124_IXORI: novel CXC-binding tick CKBP, Ixodes ricinus (DSKGTSDSQDSTKSIKVDFCETNCTKTDGGWTGCTGDCICVSVGDSIEGRCMDFG; listed as Ixodes ricinus)						CXCL9_HUMAN 31%
